US8293914B2, “4-OXO,1-4-dihydroquinoline M1 receptor positive allosteric modulators” (Merck Sharp & Dohme Corp., priority 2008, dated 2012)

Biological target: T1, acetylcholine muscarinic M1 receptor (CHOnfat/hM1 cells) (Homo sapiens, UniProt P11229)
T1 construct: expressed in transfected cells; host or cells: CHOnfat (CHO) cells expressing hM1
T1 sequence (P11229 1-460): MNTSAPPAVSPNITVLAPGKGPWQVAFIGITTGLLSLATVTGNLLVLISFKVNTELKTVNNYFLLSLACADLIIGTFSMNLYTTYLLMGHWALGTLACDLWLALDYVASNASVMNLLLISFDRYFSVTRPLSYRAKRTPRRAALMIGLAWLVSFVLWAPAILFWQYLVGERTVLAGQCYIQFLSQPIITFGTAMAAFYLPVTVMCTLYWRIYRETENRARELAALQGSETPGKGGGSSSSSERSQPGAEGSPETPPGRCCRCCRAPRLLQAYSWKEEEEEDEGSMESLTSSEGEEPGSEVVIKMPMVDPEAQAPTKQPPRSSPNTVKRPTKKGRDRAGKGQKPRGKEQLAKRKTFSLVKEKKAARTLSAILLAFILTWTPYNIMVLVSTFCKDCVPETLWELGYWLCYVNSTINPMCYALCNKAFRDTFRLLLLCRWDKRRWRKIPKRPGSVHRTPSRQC
Experiment: muscarinic M1 FLIPR calcium assay for positive allosteric modulator activity (acetylcholine EC20)
Assay type: cell-based
Details: FLIPR intracellular Ca2+, 4 min preincubation, then EC20 acetylcholine (3 nM final), read-out: IP Value (inflection point)
Description: The assay studies the effect of one or several concentrations of test compounds on basal or acetylcholine-stimulated Ca^2+ levels using FLIPR.
Compounds are prepared and subjected to a preincubation period of 4 min. Thereafter, a single EC20 concentration of acetylcholine is added to each well (3 nM final). The intracellular Ca^2+ level of each sample is measured and compared to an acetylcholine control to determine any modulatory activity.
Cells: CHOnfat/hM1, hM2, hM3 or hM4 cells are plated 24 hr before the assay at a density of 18,000 cells/well (100 μL) in a 384 well plate. CHOnfat/hM1 and CHOnfat/hM3 Growth Medium: 90% DMEM (Hi Glucose); 10% HI FBS; 2 mM L-glutamine; 0.1 mM NEAA; Pen-Strep; and 1 mg/ml Geneticin, are added. For M2Gqi5CHOnfat and M4Gqi5CHOnfat cells, an additional 600 μg/ml hygromycin is added.
Buffers. […] Dye Loading Buffer: Assay Buffer plus 1% Fetal Bovine Serum and Fluo-4AM/Pluronic Acid Mixture. […] 20% Pluronic Acid Solution stock, with a concentration of 0.04% in Buffer, 0.02% in Assay.
65 μL of 2 mM Fluo-4AM are mixed with 130 μL of 20% Pluronic Acid. The resulting solution and 650 μL FBS is added to the assay buffer for a total volume of 65 mL. Positive Controls: 4-Br-A23187: 10 mM in DMSO; final concentration 10 μM. Acetylcholine: 10 mM in water, working stock at both 20 μM and 30 μM in assay buffer, final concentration of 10 μM. This is used to check the maximum stimulation of the CHOK1/hM1 cells. 20 μM (2×) acetylcholine is added in the preincubation part of the assay, and the 30 μM (3×) stock is added in the second part. (EC20)Acetylcholine: 10 mM in water, working stock of 9 nM (3×), and final concentration in assay is 3 nM. This is used after the preincubation with test compounds. Addition of the EC20 Acetylcholine to each well with a test compound will ascertain any modulator activity. 24 wells contain 3 nM Acetylcholine alone as a control.
Four 96-well plates are combined into a 384-well plate using Mosquito Nanolitre Pipetting System by transferring 1 μl of serial diluted compounds to each well, and 1 mM acetylcholine (100× stock concentration) were added as a control. Using Temo, 49 μl assay buffer is added to each well of the 384-well plate right before assay.
In a 96-well Whatman 2 ml Uniplate, 9 nM Acetylcholine (3×) is pipetted into wells corresponding to the screening compounds, and into control wells. The 30 μM acetylcholine control (3×) is added into control wells, and the 3× agonist plate is transferred into a 384-well plate.
Cells are washed three times with 100 μL, of buffer, leaving 30 μL of buffer in each well. Using Multimek, 30 μL of Dye Loading Buffer is added into each well and incubated at 37° C., 5% CO2 for up to one hr.
After 60 min, the cells are washed three times with 100 μL of buffer, leaving 30 μL of buffer in each well. The cell plate, screening plate, and agonist addition plates are placed on the platform in the FLIPR and the door is closed. A signal test to check background fluorescence and basal fluorescence signal is performed. Laser intensity is adjusted if necessary.
4 min of preincubation with the test compounds is provided to determine any agonist activity on the M1 receptor by comparison to the 1 mM acetylcholine control. After preincubation, the EC20 value of acetylcholine (3 nM final) is added to determine any modulator activity.
The inflection point is calculated from the FLIPR values, and is a measure of activity.

| Compound | EC50 [nM] |
| --- | --- |
| Nc1cccc(-c2ccc(Cn3cc(C(=O)O)c(=O)c4cccc(F)c43)nc2)c1 [Example 55] | 24 |
| O=C(O)c1cn(Cc2ccc(-c3ccc(F)nc3)cn2)c2c(F)cccc2c1=O [Example 1, 5-{6-[(3-Carboxy-8-fluoro-4-oxoquinolin-1(4H)-yl)methyl]pyridine-3-yl}-2-fluoropyridinium] | 202 |
| O=C(O)c1cn(Cc2ccc(-n3cccn3)cn2)c2c(F)cccc2c1=O [Example 68] | 1900 |
| O=C(O)c1cn(Cc2ccc(-c3ccc(N4CCOCC4)nc3)cn2)c2cccc(F)c2c1=O [Example 27] | 100 |
| CS(=O)(=O)Nc1cccc(-c2ccc(Cn3cc(C(=O)O)c(=O)c4cccc(F)c43)nc2)c1 [Example 101] | 99 |
| O=C(O)c1cn(Cc2ccc(N3CCCCC3)nn2)c2c(F)cccc2c1=O [Example 372, 8-Fluoro-4-oxo-1-[(6-piperidin-1-ylpyridazin-3-yl)methyl]-1,4-dihydroquinoline-3-carboxylic acid] | 14300 |
| CCn1cc(-c2ccc(Cn3cc(C(=O)O)c(=O)c4c(F)ccc(F)c43)nc2)cn1 [Example 2] | 65 |
| O=C(O)c1cn(Cc2ccc(N3CCC3)nn2)c2c(F)cccc2c1=O [Example 334] | 5250 |
| O=C(O)c1cn(Cc2ccc(-c3cccc(O)c3)nn2)c2c(F)cccc2c1=O [Example 319] | 382 |
| O=C(O)c1cn(Cc2c(F)cncc2F)c2c(F)cccc2c1=O [Example 283] | 2890 |
| C[S+]([O-])c1ccc(Cn2cc(C(=O)O)c(=O)c3cccc(F)c32)nn1 (stereo not shown) [Example 352] | 24800 |
| O=C(O)c1cn(Cc2ncc(-c3ccccc3O)cn2)c2c(F)cccc2c1=O [Example 293] | 2320 |
| O=C(O)c1cn(Cc2ccc(-c3cnn(CC(F)(F)F)c3)cn2)c2c(F)ccc(F)c2c1=O [Example 156] | 114 |
| O=C(O)c1cn(Cc2cccc(-n3cccn3)n2)c2c(F)ccc(F)c2c1=O [Example 160] | 2240 |
| O=C(O)c1cn(Cc2cnc(-c3ccncc3)cn2)c2c(F)cccc2c1=O [Example 315] | 7190 |
| COc1ccc(-c2ccc(Cn3cc(C(=O)O)c(=O)c4c(F)ccc(F)c43)nc2)cn1 [Example 134] | 302 |
| Nc1ccc(-c2ccc(Cn3cc(C(=O)O)c(=O)c4c(F)cccc43)nc2)cn1 [Example 10] | 103 |
| CS(=O)(=O)c1ccc(Cn2cc(C(=O)O)c(=O)c3cccc(F)c32)nn1 [Example 373, 8-Fluoro-1-{[6-(methylsulfonyl)pyridazin-3-yl]methyl}-4-oxo-1,4-dihydroquinoline-3-carboxylic acid] | ~80000 |
| O=C(O)c1cn(Cc2ccc(-c3ccc(F)nc3)cn2)c2cccc(F)c2c1=O [Example 7] | 495 |
| Cn1ccc2cc(-c3ccc(Cn4cc(C(=O)O)c(=O)c5cccc(F)c54)cn3)ccc21 [Example 234] | 37 |
| O=C(O)c1cn(Cc2ccc(-c3ccccc3F)nn2)c2c(F)cccc2c1=O [Example 329] | 8660 |
| O=C(O)c1cn(Cc2ccc(-c3ccc(F)cc3F)cn2)c2c(F)cccc2c1=O [Example 108] | 745 |
